Series [1] concerns Zucker Diabetic Fatty (ZDF) rats. Nature of the series: oral glucose tolerance test in ZDF rats. The note with it: male ZDF rats, single oral dose 30 min before 2 g/kg oral glucose; linagliptin 1 mg/kg, compound (I.3) 3 mg/kg, combination at the same doses; versus control. Type of series: in vivo, rat. As to the method:
According to a first example an oral glucose tolerance test is performed in overnight fasted 9-weeks old male Zucker Diabetic Fatty (ZDF) rats (ZDF/Crl-Lepr^fa). A pre-dose blood sample is obtained by tail bleed. Blood glucose is measured with a glucometer, and the animals are randomized for blood glucose (n=5/group). Subsequently, the groups receive a single oral administration of either vehicle alone (0.5% aqueous hydroxyethylcellulose containing 3 mM HCl and 0.015% Polysorbat 80) or vehicle containing either the SGLT2 inhibitor or the DPPIV inhibitor or the combination of the SGLT2 inhibitor plus the DPP IV inhibitor plus. The animals receive an oral glucose load (2 g/kg) 30 min after compound administration. Blood glucose is measured in tail blood 30 min, 60 min, 90 min, 120 min, and 180 min after the glucose challenge. Glucose excursion is quantified by calculating the reactive glucose AUC. The data are presented as mean±SEM. The two-sided unpaired Student t-test is used for statistical comparison of the control group and the active groups.
“Cpd. A” is linagliptin at a dose of 1 mg/kg. Cpd. B is the compound (I.3), i.e. 1-chloro-4-(β-D-glucopyranos-1-yl)-2-[4-((S)-tetrahydrofuran-3-yloxy)-benzyl]-benzene, at a dose of 3 mg/kg. Combination A+B is the combination of linagliptin and the compound (I.3) at the same doses. P-values versus control are indicated by symbols above the bars. […]

The nature of series [2]: compatibility with / degradation of linagliptin in the composition. Type of series: physicochemical. The note with it: combined with a glucopyranosyl-substituted benzene derivative of the formula (I), in particular the compound (I.3). As to the method:
Preferably the excipients are chosen such that they are compatible with linagliptin, i.e. such that there is no or only marginal degradation of linagliptin in the pharmaceutical composition. The degradation can be tested in standard tests, for example after a 6 months storage at 40° C. and 75% relative humidity. In this context the term “marginal degradation” shall mean a chemical degradation of linagliptin of less than 5%, preferably less than 3%, even more preferably less than 2% by weight of linagliptin. The content and thus the degradation can be determined by well-known analytical methods, for example using HPLC or UV methods.

For series [3] the following is noted: metformin on its own, in the diabetic; cited from earlier work.

Consider `CC#CCn1c(N2CCC[C@@H](N)C2)nc2c1c(=O)n(Cc1nc(C)c3ccccc3n1)c(=O)n2C` [Linagliptin, linagliptin], for which the “reduction of glucose excursion (reactive glucose AUC) in oral glucose tolerance test” value in series [1] came out at 56%. For the same compound, the degradation of linagliptin entry in series [2] is recorded as “does not show or shows only marginal degradation”.
As to `OC[C@H]1O[C@@H](c2ccc(Cl)c(Cc3ccc(O[C@H]4CCOC4)cc3)c2)[C@H](O)[C@@H](O)[C@@H]1O` [compound (I.3), 1-chloro-4-(β-D-glucopyranos-1-yl)-2-[4-((S)-tetrahydrofuran-3-yloxy)-benzyl]-benzene], in series [1], the “reduction of glucose excursion (reactive glucose AUC) in oral glucose tolerance test” value worked out at 51%.
As for `CN(C)C(=N)N=C(N)N` [metformin], in series [3], the “average improvement in the HbA1c value” is on record as 1.0-1.5%.

The record behind these values is patent US20220331326A1, “PHARMACEUTICAL COMPOSITION, PHARMACEUTICAL DOSAGE FORM, PROCESS FOR THEIR PREPARATION, METHODS FOR TREATING AND USES THEREOF” (Boehringer Ingelheim International GmbH, priority 2009, published 2022).
